Key:
Conditions in all cases: stereoisomer not certain
[1] = RP, Waters ACQUITY UPLC BEH C18, 100 × 2.1 mm, 1.7 µm, 0.1 mL/min, estimated dead time 2.2 min; A: water + 0.045% formic acid + 0.11% ammonium hydroxide, pH 7; B: methanol; gradient (min/%B) 0/5 5/5 25/95 25.1/100 35/100 35.1/5 45/5
[2] = RP, Waters CORTECS T3, 100 × 2.1 mm, 2.7 µm, 0.3 mL/min, estimated dead time 0.73 min; A: water + 0.1% formic acid, pH 3; B: methanol + 0.1% formic acid, pH 3; gradient (min/%B) 0/5 5/5 25/95 25.1/100 35/100 35.1/5 45/5
[3] = RP, Waters ACQUITY UPLC BEH C18, 100 × 2.1 mm, 1.7 µm, 0.1 mL/min, estimated dead time 2.2 min; A: water + 0.1% formic acid, pH 3; B: methanol + 0.1% formic acid, pH 3; gradient (min/%B) 0/5 5/5 25/100 30/100 30.1/5 35/5
[4] = RP, Waters CORTECS T3, 100 × 2.1 mm, 2.7 µm, 0.2 mL/min, estimated dead time 1.1 min; A: water + 0.045% formic acid + 0.11% ammonium hydroxide, pH 7; B: methanol; gradient (min/%B) 0/5 5/5 25/95 25.1/100 35/100 35.1/5 45/5
[5] = RP, Waters CORTECS T3, 100 × 2.1 mm, 2.7 µm, 0.3 mL/min, estimated dead time 0.73 min; A: water + 0.1% formic acid, pH 3; B: methanol + 0.1% formic acid, pH 3; gradient (min/%B) 0/0 5/0 25/100 30/100 30.1/0 35/0
[6] = RP, Waters CORTECS T3, 100 × 2.1 mm, 2.7 µm, 0.3 mL/min, estimated dead time 0.73 min; A: water + 0.1% formic acid, pH 3; B: methanol + 0.1% formic acid, pH 3; gradient (min/%B) 0/0 1/0 6/5 30/100 35/100 35.1/0 40/0
[7] = RP, Waters CORTECS T3, 100 × 2.1 mm, 2.7 µm, 0.1 mL/min, estimated dead time 2.2 min; A: water + 0.1% formic acid, pH 3; B: methanol + 0.1% formic acid, pH 3; gradient (min/%B) 0/0 1/0 6/5 30/100 35/100 35.1/0 40/0
[8] = RP, Waters ACQUITY UPLC BEH C18, 100 × 2.1 mm, 1.7 µm, 0.2 mL/min, estimated dead time 1.1 min; A: water + 0.025% formic acid + 20 mM ammonium acetate + 0.055% ammonium hydroxide, pH 7; B: methanol; gradient (min/%B) 0/5 5/5 25/100 30/100 30.1/5 35/5
[9] = RP, Waters CORTECS T3, 100 × 2.1 mm, 2.7 µm, 0.3 mL/min, estimated dead time 0.73 min; A: water + 0.1% formic acid, pH 3; B: methanol + 0.1% formic acid, pH 3; gradient (min/%B) 0/5 5/5 25/100 30/100 30.1/5 35/5
[10] = RP, Waters CORTECS T3, 100 × 2.1 mm, 2.7 µm, 0.1 mL/min, estimated dead time 2.2 min; A: water + 0.1% formic acid, pH 3; B: methanol + 0.1% formic acid, pH 3; gradient (min/%B) 0/5 5/5 25/95 25.1/100 35/100 35.1/5 45/5
[11] = RP, Waters CORTECS T3, 100 × 2.1 mm, 2.7 µm, 0.25 mL/min, estimated dead time 0.88 min; A: water + 0.1% formic acid, pH 3; B: methanol + 0.1% formic acid, pH 3; gradient (min/%B) 0/5 5/5 25/95 25.1/100 35/100 35.1/5 45/5
[12] = RP, Waters CORTECS T3, 100 × 2.1 mm, 2.7 µm, 0.2 mL/min, estimated dead time 1.1 min; A: water + 0.1% formic acid, pH 3; B: methanol + 0.1% formic acid, pH 3; gradient (min/%B) 0/0 1/0 6/5 30/100 35/100 35.1/0 40/0
[13] = RP, Waters CORTECS T3, 100 × 2.1 mm, 2.7 µm, 0.25 mL/min, estimated dead time 0.88 min; A: water + 0.1% formic acid, pH 3; B: methanol + 0.1% formic acid, pH 3; gradient (min/%B) 0/0 1/0 6/5 30/100 35/100 35.1/0 40/0
[14] = RP, Thermo Scientific Hypercarb, 150 × 2.1 mm, 5 µm, 0.1 mL/min, estimated dead time 3.3 min; A: water + 0.1% formic acid, pH 3; B: methanol + 0.1% formic acid, pH 3; gradient (min/%B) 0/5 5/5 20/100 35/100 35.1/5 45/5
[15] = RP, Waters CORTECS T3, 100 × 2.1 mm, 2.7 µm, 0.15 mL/min, estimated dead time 1.5 min; A: water + 0.1% formic acid, pH 3; B: methanol + 0.1% formic acid, pH 3; gradient (min/%B) 0/0 1/0 6/5 30/100 35/100 35.1/0 40/0
[16] = RP, Waters ACQUITY UPLC BEH C18, 100 × 2.1 mm, 1.7 µm, 0.2 mL/min, estimated dead time 1.1 min; A: water + 0.1% formic acid, pH 3; B: methanol + 0.1% formic acid, pH 3; gradient (min/%B) 0/5 5/5 25/100 30/100 30.1/5 35/5
[17] = RP, Waters CORTECS T3, 100 × 2.1 mm, 2.7 µm, 0.2 mL/min, estimated dead time 1.1 min; A: water + 0.1% formic acid, pH 3; B: methanol + 0.1% formic acid, pH 3; gradient (min/%B) 0/0 1/0 6/5 30/100 35/100 35.1/0 40/0; remark: listed apart in the source

Compound	LC retention time [1] [min]	LC retention time [2] [min]	LC retention time [3] [min]	LC retention time [4] [min]	LC retention time [5] [min]	LC retention time [6] [min]	LC retention time [7] [min]	LC retention time [8] [min]	LC retention time [9] [min]	LC retention time [10] [min]	LC retention time [11] [min]	LC retention time [12] [min]	LC retention time [13] [min]	LC retention time [14] [min]	LC retention time [15] [min]	LC retention time [16] [min]	LC retention time [17] [min]
CCCCCCCCC=CCCCCCCCC(=O)OCC(O)CO (racemic) [1-OLEOYL-RAC-GLYCEROL]	30.2	25.6	29.3	26.2	24.8	29	26.2	26.3	24.6	–	–	–	–	–	–	–	–
Nc1ccccc1O [2-AMINOPHENOL]	–	–	–	–	–	–	–	–	–	2.8	–	–	–	–	–	–	–
COc1cc(C(O)C(=O)O)ccc1O (stereo unspecified) [3-METHOXY-4-HYDROXYMANDELATE]	–	–	–	–	–	–	–	–	–	–	2.78	–	–	–	–	–	–
Cn1cnc(=N)c2[nH]cnc21 [3-METHYLADENINE]	2.75	–	2.69	3.8	0.89	–	–	3.62	–	–	–	1.34	1.09	24.5	1.78	–	–
O=C(O)Cc1c[nH]c2ccc(O)cc12 [5-HYDROXYINDOLEACETATE]	–	8.59	13.3	–	10	10.1	10.1	–	8.56	13.4	–	11.5	10.8	30.8	12.9	–	–
Cc1cnc(=O)[nH]c1N [5-METHYLCYTOSINE]	–	–	2.71	1.35	–	0.9	–	2.21	–	–	–	–	1.06	16.9	–	–	–
O=C(O)C(O)C(O)C(O)C(O)COP(=O)(O)O (stereo unspecified) [6-PHOSPHOGLUCONIC ACID]	–	–	–	–	–	–	–	–	–	–	1.08	–	–	–	–	–	–
CCCCC(CC)COC(=O)c1ccccc1C(=O)OCC(CC)CCCC (stereo unspecified) [BIS(2-ETHYLHEXYL)PHTHALATE]	30.8	26.4	30	26.7	25.5	30	26.7	–	25.4	–	–	–	30.4	–	32.3	–	–
CC(=O)OCC(=O)C1(O)CCC2C3CCC4=CC(=O)CCC4(C)C3C(O)CC21C (stereo unspecified) [CORTISOL 21-ACETATE]	22.9	18.6	22.3	19.9	18.6	21.1	19.9	19.4	18.1	22.9	–	22.4	21.6	–	23.6	–	–
CCOC(=O)Cc1c[nH]c2ccccc12 [ETHYL 3-INDOLEACETATE]	22.5	17.4	–	18.9	17.5	19.6	18.8	–	16.9	22.1	–	21.1	–	–	22.4	–	–
NC(CCSSCCC(N)C(=O)O)C(=O)O (stereo unspecified) [HOMOCYSTINE]	–	0.9	2.74	–	–	–	–	–	–	–	–	–	1.09	14	1.78	1.38	1.35
O=CCc1c[nH]c2ccccc12 [INDOLE-3-ACETALDEHYDE]	13.7	9.27	13.6	10.7	–	10.8	10.6	10.6	9.2	13.8	–	12.1	11.3	–	13.3	–	–
N[C@@H](Cc1ccccc1)C(=O)O [L-PHENYLALANINE]	–	12	17.3	–	12.8	13.6	13.6	–	11.8	17.2	–	15.3	14.4	–	16.7	–	–
NC(=O)[C@@H](N)Cc1c[nH]c2ccccc12 [L-TRYPTOPHANAMIDE]	14.1	–	11.2	9.97	8.34	7.63	7.08	10.1	4.89	11.1	–	9.28	8.41	–	10.8	–	–
COC(=O)Cc1c[nH]c2ccccc12 [METHYL INDOLE-3-ACETATE]	20.9	15.7	20.5	17.2	16	17.6	17.2	–	15.3	20.5	–	19.3	–	–	20.6	–	–
CCC=CCC1C(=O)CCC1CC(=O)OC (stereo unspecified) [METHYL JASMONATE]	23.9	–	23.2	20.3	–	–	–	20	–	23.6	–	–	–	–	24	–	–
Cc1ncc(CO)c(CN)c1O [PYRIDOXAMINE]	2.75	–	–	1.35	–	–	–	1.8	–	–	–	–	–	16.2	–	–	–
CC=CC=CC(=O)O [SORBATE]	–	–	–	–	–	–	–	–	–	4.88	–	–	–	–	–	–	–
O=C(O)C=Cc1cnc[nH]1 [UROCANATE]	–	–	2.71	–	0.91	0.9	–	1.39	–	–	–	–	1.06	–	1.8	1.36	–
